23 molecules from ChEMBL document CHEMBL1145296, “Development of 6-substituted indolylquinolinones as potent Chek1 kinase inhibitors” (Bioorg Med Chem Lett, 2006) can be followed below.

Data set [1] concerns the target T1, Serine/threonine-protein kinase Chk1 (Homo sapiens, UniProt O14757).
T1 sequence (O14757 whole entry): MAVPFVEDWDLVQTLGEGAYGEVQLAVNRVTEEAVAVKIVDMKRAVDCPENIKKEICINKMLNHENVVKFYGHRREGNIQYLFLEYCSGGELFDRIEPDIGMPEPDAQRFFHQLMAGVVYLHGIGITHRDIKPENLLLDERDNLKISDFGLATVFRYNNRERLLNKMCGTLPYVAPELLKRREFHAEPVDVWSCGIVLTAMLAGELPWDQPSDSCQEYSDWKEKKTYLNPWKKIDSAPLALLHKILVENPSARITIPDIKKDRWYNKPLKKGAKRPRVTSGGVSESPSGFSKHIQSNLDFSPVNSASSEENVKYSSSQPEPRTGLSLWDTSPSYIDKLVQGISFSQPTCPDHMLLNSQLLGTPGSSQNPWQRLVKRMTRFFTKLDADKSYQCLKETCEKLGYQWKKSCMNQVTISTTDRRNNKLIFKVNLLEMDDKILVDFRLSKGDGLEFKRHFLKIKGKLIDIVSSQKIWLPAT
In words: Inhibition of human CHEK1.

Data set [2] is described as follows: Clearance in dog at 0.25 mg/kg, iv. The arrangement: dose 0.25 mg/kg, route intravenous. Type of data set: ADME, organism-based, Canis lupus familiaris. The conditions noted are these: in vivo.
Data set [3] in a line: Half life in dog at 0.25 mg/kg, iv. Type of data set: ADME, organism-based, Canis lupus familiaris. The arrangement: dose 0.25 mg/kg, route intravenous. As to conditions: in vivo.
A short description of data set [4]: Partition coefficient, log P of the compound. Type of data set: physicochemical. As to conditions: octanol/water.

For orientation: IC50 means the concentration at which inhibition is half-maximal. Lower therefore signals higher potency. `N#Cc1ccc2cc(-c3cc4cc(CN5CCC(CN)CC5)ccc4[nH]3)c(=O)[nH]c2c1` returned an IC50 in data set [1] of 190 nM.

As a reminder, the clearance is the rate of elimination divided by the concentration. A high value points to a high capacity for elimination. For orientation: half-life means the time needed for the level to fall by half in the phase considered. Read a high half-life as slow loss. Regarding `O=c1[nH]c2ccc(-c3cn[nH]c3)cc2cc1-c1cc2cc(CN3CCC(F)CC3)ccc2[nH]1`, in data set [1], the IC50 stood at 1 nM. In data set [2], this molecule came in with a clearance of 22 mL/min/kg. This molecule also gave a half-life in data set [3] of 2.5 h.

Take `O=c1[nH]c2ccc(-n3ccnc3)cc2cc1-c1cc2cc(CN3CCCCC3)ccc2[nH]1`: the IC50 in data set [1] was determined as 4.3 nM.

In turn, `CC(=O)N1CCN(Cc2ccc3[nH]c(-c4cc5cc(-c6cnn(C)c6)ccc5[nH]c4=O)cc3c2)CC1` returned an IC50 in data set [1] of 3 nM. Besides, in data set [2], the clearance is 6.5 mL/min/kg. The molecule also had a half-life in data set [3] of 4.1 h.

Turning to `COCC(=O)N1CCN(Cc2ccc3[nH]c(-c4cc5cc(-c6cn[nH]c6)ccc5[nH]c4=O)cc3c2)CC1`, in data set [1], the midpoint of inhibition, the IC50, lay at 2.1 nM. For the same molecule, in data set [2], the clearance came to 23 mL/min/kg. For the same molecule, in data set [3], the half-life is 2 h.

`Cn1nnc(-c2ccc3[nH]c(=O)c(-c4cc5cc(CN6CCCCC6)ccc5[nH]4)cc3c2)n1`: in data set [1], the IC50 turned out to be 6.4 nM.

The molecule `O=c1[nH]c2ccc(-n3ccnn3)cc2cc1-c1cc2cc(CN3CCCCC3)ccc2[nH]1` had an IC50 in data set [1] of 0.74 nM. Against the preceding molecule, the IC50 is about 8.6-fold lower.

In data set [1], `NCC1CCN(Cc2ccc3[nH]c(-c4cc5cc(C(N)=O)ccc5[nH]c4=O)cc3c2)CC1` came in with an IC50 of 0.7 nM.

`N#Cc1ccc2[nH]c(=O)c(-c3cc4cc(CN5CCC(CN)CC5)ccc4[nH]3)cc2c1` came in with an IC50 in data set [1] of 4 nM. Against the preceding molecule, the IC50 is about 5.7-fold higher.

With `N#Cc1ccc2[nH]c(=O)c(-c3cc4cc(CN5CCCCC5)ccc4[nH]3)cc2c1`, half-maximal inhibition in data set [1] (IC50) required 4.6 nM.

`O=c1[nH]c2ccc(-c3cccc(O)c3)cc2cc1-c1cc2cc(CN3CCCCC3)ccc2[nH]1` returned an IC50 in data set [1] of 29 nM.

In the case of `N#Cc1cccc2[nH]c(=O)c(-c3cc4cc(CN5CCC(CN)CC5)ccc4[nH]3)cc12`, in data set [1], 580 nM corresponded to half-maximal inhibition (IC50).

On to `O=c1[nH]c2ccccc2cc1-c1cc2ccccc2[nH]1`, for which the IC50 in data set [1] turned out to be 1000 nM. Against the preceding molecule, the IC50 is about 1.7-fold higher.

Molecule `O=c1[nH]c2ccc(-c3cn[nH]c3)cc2cc1-c1cc2cc(CN3CCOCC3)ccc2[nH]1` had an IC50 in data set [1] of 0.83 nM. In data set [2], this molecule registered a clearance of 34 mL/min/kg. In addition, the half-life in data set [3] is 2 h.

For the molecule `CC(=O)N1CCN(Cc2ccc3[nH]c(-c4cc5cc(-c6cn[nH]c6)ccc5[nH]c4=O)cc3c2)CC1`, in data set [1], the midpoint of inhibition, the IC50, lay at 2.5 nM. The clearance in data set [2] is 27 mL/min/kg. Further, the half-life in data set [3] is 1.5 h.

Consider `COc1cc(-c2ccc3[nH]c(=O)c(-c4cc5cc(CN6CCCCC6)ccc5[nH]4)cc3c2)ccc1O`, for which the IC50 in data set [1] was determined as 20 nM. That is a double-digit nanomolar value.

With `O=c1[nH]c2ccc(Br)cc2cc1-c1cc2cc(CN3CCCCC3)ccc2[nH]1`, the IC50 in data set [1] turned out to be 2.9 nM.

Regarding `O=c1[nH]c2ccc(-c3cnsc3)cc2cc1-c1cc2cc(CN3CCCCC3)ccc2[nH]1`, the IC50 in data set [1] is 0.64 nM.

Consider `O=c1[nH]c2ccc(-n3nccn3)cc2cc1-c1cc2cc(CN3CCCCC3)ccc2[nH]1`, for which the IC50 in data set [1] is 14 nM.

As to `Cn1cc(-c2ccc3[nH]c(=O)c(-c4cc5cc(CN6CCCCC6)ccc5[nH]4)cc3c2)cn1`, in data set [1], inhibition was half-maximal at 1.1 nM (IC50).

Regarding `NC(=O)c1ccc2[nH]c(=O)c(-c3cc4cc(CN5CCCCC5)ccc4[nH]3)cc2c1`, the IC50 in data set [1] was found to be 0.34 nM. This IC50 is about 3.2-fold lower than that of the molecule before.

As to `O=c1[nH]c2ccc(-c3cc[nH]n3)cc2cc1-c1cc2cc(CN3CCCCC3)ccc2[nH]1`, the half-inhibitory concentration (IC50) in data set [1] is 5.6 nM.

By logP is commonly meant a log measure of how a compound divides between an organic and an aqueous phase. On to `O=c1[nH]c2ccc(-c3cn[nH]c3)cc2cc1-c1cc2cc(CN3CCCCC3)ccc2[nH]1`, for which the clearance in data set [2] turned out to be 30 mL/min/kg. In data set [3], this molecule showed a half-life of 4.4 h. Further, the logP in data set [4] was determined as 2.81.
